Reference: ChEMBL document CHEMBL1240372, “Murine model of a disseminated infection by the novel fungus Fonsecaea monophora and successful treatment with posaconazole” (Antimicrob Agents Chemother, 2010)
In brackets after ≈: the same amount, converted by molar mass. Activity calls are given as the source filed them. The rule behind the calls is not given here.

Columns and labels:
Fonsecaea monophora [1] = assay: Antifungal activity against 1 x 10^6 CFU Fonsecaea monophora CBS 269.37 infected in […] OF1 mouse assessed as reduction in fungal load in kidney at 1.5 mg/kg, ip qd administered 1 day after infection for 7 days; assay type: functional, organism-based; design: dose 1.5 mg/kg
Fonsecaea monophora [2] = assay: Antifungal activity against Fonsecaea monophora CBS 269.37; assay type: functional
Fonsecaea monophora [3] = assay: Antifungal activity against Fonsecaea monophora CBS 117236; assay type: functional
Fonsecaea monophora [4] = assay: Antifungal activity against 1 x 10^6 CFU Fonsecaea monophora CBS 269.37 infected in […] OF1 mouse assessed as reduction in fungal load in spleen at 1.5 mg/kg, ip qd administered 1 day after infection for 7 days; assay type: functional, organism-based; design: dose 1.5 mg/kg
Fonsecaea monophora [5] = assay: Antifungal activity against 2 x 10^5 CFU Fonsecaea monophora CBS 117236 infected in […] OF1 mouse assessed as reduction in fungal load in spleen at 1.5 mg/kg, ip qd administered 1 day after infection for 7 days; assay type: functional, organism-based; design: dose 1.5 mg/kg
Fonsecaea monophora [6] = assay: Antifungal activity against 1 x 10^6 CFU Fonsecaea monophora CBS 269.37 infected in […] OF1 mouse assessed as reduction in fungal load in lung at 1.5 mg/kg, ip qd administered 1 day after infection for 7 days; assay type: functional, organism-based; design: dose 1.5 mg/kg
[7] = Drug level in 1 x 10^6 CFU Fonsecaea monophora CBS 269.37 infected OF1 mouse serum at 1.5 mg/kg, ip qd administered 1 day after infection measured on day 6 after 4 hrs of last treatment; assay type: ADME, organism-based; design: dose 1.5 mg/kg, route intraperitoneal; details: read-out: Drug uptake
Fonsecaea monophora [8] = assay: Antifungal activity against 2 x 10^5 CFU Fonsecaea monophora CBS 117236 infected in […] OF1 mouse assessed as reduction in fungal load in lung at 1.5 mg/kg, ip qd administered 1 day after infection for 7 days; assay type: functional, organism-based; design: dose 1.5 mg/kg
Fonsecaea monophora [9] = assay: Antifungal activity against 1 x 10^6 CFU Fonsecaea monophora CBS 269.37 infected in OF1 mouse assessed as increase in mouse survival at 1.5 mg/kg, ip qd administered 1 day after infection for 7 days; assay type: functional, organism-based; design: dose 1.5 mg/kg
Fonsecaea monophora [10] = assay: Antifungal activity against 2 x 10^5 CFU Fonsecaea monophora CBS 117236 infected in […] OF1 mouse assessed as reduction in fungal load in kidney at 1.5 mg/kg, ip qd administered 1 day after infection for 7 days; assay type: functional, organism-based; design: dose 1.5 mg/kg
Fonsecaea monophora [11] = assay: Antifungal activity against 1 x 10^6 CFU Fonsecaea monophora CBS 269.37 infected in po dosed OF1 mouse assessed as reduction in fungal load in lung compound administered qd 1 day after infection for 7 days; assay type: functional, organism-based
Fonsecaea monophora [12] = assay: Antifungal activity against 2 x 10^5 CFU Fonsecaea monophora CBS 117236 infected in OF1 mouse assessed as increase in mouse survival at 40 mg/kg, po qd administered 1 day after infection for 7 days; assay type: functional, organism-based; design: dose 40 mg/kg
[13] = Drug level in 1 x 10^6 CFU Fonsecaea monophora CBS 269.37 infected OF1 mouse brain at 10 mg/kg, po qd administered 1 day after infection measured on day 6 after 4 hrs of last treatment; assay type: ADME, organism-based; design: dose 10 mg/kg, route oral; details: read-out: Drug uptake
Fonsecaea monophora [14] = assay: Antifungal activity against 2 x 10^5 CFU Fonsecaea monophora CBS 117236 infected in po dosed OF1 mouse assessed as reduction in fungal load in kidney compound administered qd 1 day after infection for 7 days; assay type: functional, organism-based
Fonsecaea monophora [15] = assay: Antifungal activity against 2 x 10^5 CFU Fonsecaea monophora CBS 117236 infected in OF1 mouse assessed as increase in mouse survival at 10 mg/kg, po qd administered 1 day after infection for 7 days; assay type: functional, organism-based; design: dose 10 mg/kg
Fonsecaea monophora [16] = assay: Antifungal activity against 2 x 10^5 CFU Fonsecaea monophora CBS 117236 infected in OF1 mouse assessed as increase in mouse body weight at 20 mg/kg, po qd administered 1 day after infection for 7 days; assay type: functional, organism-based; design: dose 20 mg/kg
[17] = Drug level in 1 x 10^6 CFU Fonsecaea monophora CBS 269.37 infected OF1 mouse brain at 20 mg/kg, po qd administered 1 day after infection measured on day 6 after 4 hrs of last treatment; assay type: ADME, organism-based; design: dose 20 mg/kg, route oral; details: read-out: Drug uptake
[18] = Drug level in 1 x 10^6 CFU Fonsecaea monophora CBS 269.37 infected OF1 mouse serum at 10 mg/kg, po qd administered 1 day after infection measured on day 6 after 4 hrs of last treatment; assay type: ADME, organism-based; design: dose 10 mg/kg, route oral; details: read-out: Drug uptake
Fonsecaea monophora [19] = assay: Antifungal activity against 2 x 10^5 CFU Fonsecaea monophora CBS 117236 infected in po dosed OF1 mouse assessed as reduction in fungal load in lung compound administered qd 1 day after infection for 7 days; assay type: functional, organism-based
Fonsecaea monophora [20] = assay: Antifungal activity against 1 x 10^6 CFU Fonsecaea monophora CBS 269.37 infected in OF1 mouse assessed as increase in mouse survival at 40 mg/kg, po qd administered 1 day after infection for 7 days; assay type: functional, organism-based; design: dose 40 mg/kg
Fonsecaea monophora [21] = assay: Antifungal activity against 1 x 10^6 CFU Fonsecaea monophora CBS 269.37 infected in po dosed OF1 mouse assessed as reduction in fungal load in brain compound administered qd 1 day after infection for 7 days; assay type: functional, organism-based
Fonsecaea monophora [22] = assay: Antifungal activity against 1 x 10^6 CFU Fonsecaea monophora CBS 269.37 infected in OF1 mouse assessed as increase in mouse survival at 20 mg/kg, po qd administered 1 day after infection for 7 days; assay type: functional, organism-based; design: dose 20 mg/kg
[23] = Drug level in 1 x 10^6 CFU Fonsecaea monophora CBS 269.37 infected OF1 mouse serum at 20 mg/kg, po qd administered 1 day after infection measured on day 6 after 4 hrs of last treatment; assay type: ADME, organism-based; design: dose 20 mg/kg, route oral; details: read-out: Drug uptake
Fonsecaea monophora [24] = assay: Antifungal activity against 1 x 10^6 CFU Fonsecaea monophora CBS 269.37 infected in po dosed OF1 mouse assessed as reduction in fungal load in kidney compound administered qd 1 day after infection for 7 days; assay type: functional, organism-based
Fonsecaea monophora [25] = assay: Antifungal activity against 1 x 10^6 CFU Fonsecaea monophora CBS 269.37 infected in po dosed OF1 mouse assessed as reduction in fungal load in spleen compound administered qd 1 day after infection for 7 days; assay type: functional, organism-based
[26] = Drug level in 1 x 10^6 CFU Fonsecaea monophora CBS 269.37 infected OF1 mouse serum at 40 mg/kg, po qd administered 1 day after infection measured on day 6 after 4 hrs of last treatment; assay type: ADME, organism-based; design: dose 40 mg/kg, route oral; details: read-out: Drug uptake
[27] = Drug level in 1 x 10^6 CFU Fonsecaea monophora CBS 269.37 infected OF1 mouse brain at 40 mg/kg, po qd administered 1 day after infection measured on day 6 after 4 hrs of last treatment; assay type: ADME, organism-based; design: dose 40 mg/kg, route oral; details: read-out: Drug uptake
Fonsecaea monophora [28] = assay: Antifungal activity against 2 x 10^5 CFU Fonsecaea monophora CBS 117236 infected in OF1 mouse assessed as increase in mouse body weight at 10 mg/kg, po qd administered 1 day after infection for 7 days; assay type: functional, organism-based; design: dose 10 mg/kg
Fonsecaea monophora [29] = assay: Antifungal activity against 2 x 10^5 CFU Fonsecaea monophora CBS 117236 infected in OF1 mouse assessed as increase in mouse survival at 20 mg/kg, po qd administered 1 day after infection for 7 days; assay type: functional, organism-based; design: dose 20 mg/kg
Fonsecaea monophora [30] = assay: Antifungal activity against 2 x 10^5 CFU Fonsecaea monophora CBS 117236 infected in po dosed OF1 mouse assessed as reduction in fungal load in spleen compound administered qd 1 day after infection for 7 days; assay type: functional, organism-based
Fonsecaea monophora [31] = assay: Antifungal activity against 2 x 10^5 CFU Fonsecaea monophora CBS 117236 infected in po dosed OF1 mouse assessed as reduction in fungal load in brain compound administered qd 1 day after infection for 7 days; assay type: functional, organism-based
[32] = Drug level in 1 x 10^6 CFU Fonsecaea monophora CBS 269.37 infected OF1 mouse serum at 50 mg/kg, po bid administered 1 day after infection measured on day 6 after 4 hrs of last treatment; assay type: ADME, organism-based; design: dose 50 mg/kg, route oral; details: read-out: Drug uptake
Fonsecaea monophora [33] = assay: Antifungal activity against 2 x 10^5 CFU Fonsecaea monophora CBS 117236 infected in po dosed OF1 mouse assessed as reduction in fungal load in spleen at 25 mg/kg, po bid administered 1 day after infection for 7 days; assay type: functional, organism-based; design: dose 25 mg/kg
Fonsecaea monophora [34] = assay: Antifungal activity against 2 x 10^5 CFU Fonsecaea monophora CBS 117236 infected in OF1 mouse assessed as increase in mouse survival at 25 mg/kg, po bid administered 1 day after infection for 7 days; assay type: functional, organism-based; design: dose 25 mg/kg
Fonsecaea monophora [35] = assay: Antifungal activity against 1 x 10^6 CFU Fonsecaea monophora CBS 269.37 infected in po dosed OF1 mouse assessed as reduction in fungal load in kidney at 25 mg/kg, po bid administered 1 day after infection for 7 days; assay type: functional, organism-based; design: dose 25 mg/kg
Fonsecaea monophora [36] = assay: Antifungal activity against 2 x 10^5 CFU Fonsecaea monophora CBS 117236 infected in po dosed OF1 mouse assessed as reduction in fungal load in kidney at 25 mg/kg, po bid administered 1 day after infection for 7 days; assay type: functional, organism-based; design: dose 25 mg/kg
Fonsecaea monophora [37] = assay: Antifungal activity against 1 x 10^6 CFU Fonsecaea monophora CBS 269.37 infected in OF1 mouse assessed as increase in mouse survival at 25 mg/kg, po bid administered 1 day after infection for 7 days; assay type: functional, organism-based; design: dose 25 mg/kg
Fonsecaea monophora [38] = assay: Antifungal activity against 2 x 10^5 CFU Fonsecaea monophora CBS 117236 infected in po dosed OF1 mouse assessed as reduction in fungal load in lung at 25 mg/kg, po bid administered 1 day after infection for 7 days; assay type: functional, organism-based; design: dose 25 mg/kg
[39] = Drug level in 1 x 10^6 CFU Fonsecaea monophora CBS 269.37 infected OF1 mouse brain at 50 mg/kg, po bid administered 1 day after infection measured on day 6 after 4 hrs of last treatment; assay type: ADME, organism-based; design: dose 50 mg/kg, route oral; details: read-out: Drug uptake
Fonsecaea monophora [40] = assay: Antifungal activity against 1 x 10^6 CFU Fonsecaea monophora CBS 269.37 infected in po dosed OF1 mouse assessed as reduction in fungal load in spleen at 25 mg/kg, po bid administered 1 day after infection for 7 days; assay type: functional, organism-based; design: dose 25 mg/kg
Fonsecaea monophora [41] = assay: Antifungal activity against 1 x 10^6 CFU Fonsecaea monophora CBS 269.37 infected in po dosed OF1 mouse assessed as reduction in fungal load in lung at 25 mg/kg, po bid administered 1 day after infection for 7 days; assay type: functional, organism-based; design: dose 25 mg/kg

SMILES: C[C@@H]1[C@H](O)[C@@H](C)/C=C/C=C/C=C/C=C/C=C/C=C/C=C/[C@H](O[C@@H]2O[C@H](C)[C@@H](O)[C@H](N)[C@@H]2O)C[C@@H]2O[C@](O)(C[C@@H](O)C[C@@H](O)[C@H](O)CC[C@@H](O)C[C@@H](O)CC(=O)O[C@H]1C)C[C@H](O)[C@H]2C(=O)O [AMPHOTERICIN B]
- Activity (Fonsecaea monophora [1]): Active
- MIC (Fonsecaea monophora [2]): 1 µg/mL (≈ 1.08 µM)
- MIC (Fonsecaea monophora [3]): 1 µg/mL (≈ 1.08 µM)
- Activity (Fonsecaea monophora [4]): Active
- Activity (Fonsecaea monophora [5]): Active
- Activity (Fonsecaea monophora [6]): Active
- concentration at 4 h [7]: 6450 ng/mL
- Activity (Fonsecaea monophora [8]): Active
- Activity (Fonsecaea monophora [9]): Active
- Activity (Fonsecaea monophora [10]): Active

SMILES: CC[C@@H]([C@H](C)O)n1ncn(-c2ccc(N3CCN(c4ccc(OC[C@@H]5CO[C@@](Cn6cncn6)(c6ccc(F)cc6F)C5)cc4)CC3)cc2)c1=O [POSACONAZOLE]
- Activity (Fonsecaea monophora [11]): Dose-dependent effect
- Activity (Fonsecaea monophora [12]): Active
- MIC (Fonsecaea monophora [2]): 0.25 µg/mL (≈ 0.357 µM)
- MIC (Fonsecaea monophora [3]): 0.12 µg/mL (≈ 0.171 µM)
- concentration at 4 h [13]: 2020 ng/g
- Activity (Fonsecaea monophora [14]): Dose-dependent effect
- Activity (Fonsecaea monophora [15]): Active
- Activity (Fonsecaea monophora [16]): Active
- concentration at 4 h [17]: 2840 ng/g
- concentration at 4 h [18]: 5170 ng/mL
- Activity (Fonsecaea monophora [19]): Dose-dependent effect
- Activity (Fonsecaea monophora [20]): Active
- Activity (Fonsecaea monophora [21]): Dose-dependent effect
- Activity (Fonsecaea monophora [22]): Active
- concentration at 4 h [23]: 6350 ng/mL
- Activity (Fonsecaea monophora [24]): Dose-dependent effect
- Activity (Fonsecaea monophora [25]): Dose-dependent effect
- concentration at 4 h [26]: 9720 ng/mL
- concentration at 4 h [27]: 6730 ng/g
- Activity (Fonsecaea monophora [28]): Active
- Activity (Fonsecaea monophora [29]): Active
- Activity (Fonsecaea monophora [30]): Dose-dependent effect
- Activity (Fonsecaea monophora [31]): Dose-dependent effect

SMILES: CCC(C)n1ncn(-c2ccc(N3CCN(c4ccc(OCC5COC(Cn6cncn6)(c6ccc(Cl)cc6Cl)O5)cc4)CC3)cc2)c1=O (stereo not given) [ITRACONAZOLE]
- concentration at 4 h [32]: 7320 ng/mL
- Activity (Fonsecaea monophora [33]): Active
- Activity (Fonsecaea monophora [34]): inactive
- MIC (Fonsecaea monophora [2]): 0.5 µg/mL (≈ 0.709 µM)
- MIC (Fonsecaea monophora [3]): 0.25 µg/mL (≈ 0.354 µM)
- Activity (Fonsecaea monophora [35]): Active
- Activity (Fonsecaea monophora [36]): Active
- Activity (Fonsecaea monophora [37]): inactive
- Activity (Fonsecaea monophora [38]): Active
- concentration at 4 h [39]: 6880 ng/g
- Activity (Fonsecaea monophora [40]): Active
- Activity (Fonsecaea monophora [41]): Active
